Data taken from ChEMBL document CHEMBL4312025, “Synthesis, antiproliferative activity and DNA/RNA-binding properties of mono- and bis-(1,2,3-triazolyl)-appended benzimidazo[1,2-a]quinoline derivatives” (Eur J Med Chem, 2020).
Activity calls are given as the source filed them. No cut-off for these calls is given here.

Legend:
[1] = test system: NCI-H460; assay: Growth inhibition of human H460 cells incubated for 72 hrs by MTT assay; format: functional; settings: NCI-H460, 72 h
[2] = test system: MCF7; assay: Growth inhibition of human MCF7 cells incubated for 72 hrs by MTT assay; format: functional; settings: MCF7, 72 h
[3] = test system: HCT-116; assay: Growth inhibition of human HCT116 cells incubated for 72 hrs by MTT assay; format: functional; settings: HCT-116, 72 h
[4] = Growth inhibition of human HaCaT cells incubated for 72 hrs by MTT assay; format: cell-based
[5] = test system: Poly(dA-dU)oligonucleotide; assay: Binding affinity to polyA-polyU dsRNA (unknown origin) assessed as change in melting temperature in sodium cacodylate buffer at pH 7 at compound:polynucleotide concentration ratio of 0.2 by thermal denaturation assay; format: nucleic-acid assay
[6] = Solubility of the compound in 0.05 M sodium cacodylate buffer with <0.01% DMSO upto 1X10'-5 mol/dm3 by UV/Visible spectra analysis; format: physicochemical
[7] = test system: Calf thymus DNA; assay: Binding affinity to calf thymus dsDNA assessed as binding constant in sodium cacodylate buffer at pH 7 by fluorescence spectroscopy; format: nucleic-acid assay; settings: Bos taurus
[8] = test system: HCT-116; assay: Cytotoxicity against human HCT116 cells assessed as induction of massive cell death at 5 uM incubated for 24 to 48 hrs; format: functional, cell-based
[9] = Drug uptake in nucleus of human H460 cells at 1 uM incubated for 15 mins by fluorescence microscopy; format: ADME, cell-based; settings: nci-h460, 0.25 h
[10] = test system: Calf thymus DNA; assay: Binding affinity to calf thymus dsDNA assessed as ratio for fluorescence intensity of compound to fluorescence intensity for compound-polynucleotide complex in sodium cacodylate buffer at pH 7 by fluorescence spectroscopy based Scatchard method; format: nucleic-acid assay; settings: Bos taurus
[11] = test system: Calf thymus DNA; assay: Binding affinity to calf thymus dsDNA assessed as stabilization of mixed DNA base pairs in sodium cacodylate buffer at pH 7 at compound:polynucleotide concentration ratio of 0.2 by thermal denaturation assay; format: nucleic-acid assay; settings: Bos taurus
[12] = test system: Calf thymus DNA; assay: Binding affinity to calf thymus dsDNA assessed as change in melting temperature in sodium cacodylate buffer at pH 7 at compound:polynucleotide concentration ratio of 0.2 by thermal denaturation assay; format: nucleic-acid assay; settings: Bos taurus
[13] = test system: Calf thymus DNA; assay: Binding affinity to calf thymus dsDNA assessed as intercalating activity by measuring weak negative ICD band between 300 and 330 nm in sodium cacodylate buffer at pH 7 at compound:polynucleotide concentration ratio of 0.1 to 0.3 by CD spectroscopy; format: nucleic-acid assay; settings: Bos taurus
[14] = test system: Poly(dA-dU)oligonucleotide; assay: Binding affinity to polyA-polyU dsRNA (unknown origin) assessed as intercalating activity by measuring decrease in CD spectra of polynucleotides in sodium cacodylate buffer at pH 7 at compound:polynucleotide concentration ratio of 0.1 to 0.4 by CD spectroscopy; format: nucleic-acid assay
[15] = test system: Poly(dA-dU)oligonucleotide; assay: Binding affinity to polyA-polyU dsRNA (unknown origin) assessed as decrease in emission intensity of the compound in sodium cacodylate buffer at pH 7 at 1X10'-6 mol/dm3 by fluorescence spectroscopy; format: nucleic-acid assay
[16] = test system: Calf thymus DNA; assay: Binding affinity to calf thymus dsDNA assessed as intercalating activity by measuring decrease in CD spectra of polynucleotides in sodium cacodylate buffer at pH 7 at compound:polynucleotide concentration ratio of 0.1 to 0.3 by CD spectroscopy; format: nucleic-acid assay; settings: Bos taurus
[17] = test system: Calf thymus DNA; assay: Binding affinity to calf thymus ds-DNA assessed as decrease in emission intensity of the compound in sodium cacodylate buffer at pH 7 at 1X10'-6 mol/dm3 by fluorescence spectroscopy; format: nucleic-acid assay; settings: Bos taurus
[18] = test system: Calf thymus DNA; assay: Binding affinity to calf thymus dsDNA assessed as ratio for bound compound to polynucleotide in sodium cacodylate buffer at pH 7 by fluorescence spectroscopy based Scatchard analysis; format: nucleic-acid assay; settings: Bos taurus
[19] = Drug uptake in cytoplasm of human H460 cells assessed as perinuclear reticular staining at 1 uM incubated for 15 mins by fluorescence microscopy; format: ADME, cell-based; settings: nci-h460, 0.25 h
[20] = test system: HCT-116; assay: Cell cycle arrest in human HCT116 cells at 0.5 to 1 uM incubated for 24 and 48 hrs by propidium iodide staining based flow cytometry; format: functional
[21] = test system: Poly(dA-dU)oligonucleotide; assay: Binding affinity to polyA-polyU dsRNA (unknown origin) assessed as ratio for fluorescence intensity of compound to fluorescence intensity for compound-polynucleotide complex in sodium cacodylate buffer at pH 7 by fluorescence spectroscopy based Scatchard method; format: nucleic-acid assay
[22] = Drug uptake in nucleus of human H460 cells at 10 uM incubated for 15 mins by fluorescence microscopy; format: ADME, cell-based; settings: nci-h460, 0.25 h
[23] = test system: Poly(dA-dU)oligonucleotide; assay: Binding affinity to polyA-polyU dsRNA (unknown origin) assessed as ratio for bound compound to polynucleotide in sodium cacodylate buffer at pH 7 by fluorescence spectroscopy based Scatchard method; format: nucleic-acid assay
[24] = test system: Poly(dA-dU)oligonucleotide; assay: Binding affinity to polyA-polyU dsRNA (unknown origin) assessed as binding constant in sodium cacodylate buffer at pH 7 by fluorescence spectroscopy; format: nucleic-acid assay
[25] = Drug uptake in cytoplasm of human H460 cells assessed as perinuclear reticular staining at 10 uM incubated for 15 mins by fluorescence microscopy; format: ADME, cell-based; settings: nci-h460, 0.25 h
[26] = test system: Poly(dA-dU)oligonucleotide; assay: Binding affinity to polyA-polyU dsRNA (unknown origin) assessed as biphasic thermal denaturation transitions in sodium cacodylate buffer at pH 7 at compound:polynucleotide concentration ratio of 0.1 by thermal denaturation assay; format: nucleic-acid assay
[27] = test system: Poly(dA-dU)oligonucleotide; assay: Binding affinity to polyA-polyU dsRNA (unknown origin) assessed as biphasic thermal denaturation transitions in sodium cacodylate buffer at pH 7 at compound:polynucleotide concentration ratio of 0.2 by thermal denaturation assay; format: nucleic-acid assay
[28] = test system: Poly(dA-dU)oligonucleotide; assay: Binding affinity to polyA-polyU dsRNA (unknown origin) assessed as stabilization of polynucleotide in sodium cacodylate buffer at pH 7 at compound:polynucleotide concentration ratio of 0.1 to 0.2 by thermal denaturation assay; format: nucleic-acid assay
[29] = Selectivity index, ratio of GI50 for human HaCaT cells to GI50 for human HCT116 cells incubated for 72 hrs by MTT assay; format: toxicity; settings: HaCaT cells and HCT116 cells, read-out: RatioGI50

GI50 [1] [µM]	GI50 [2] [µM]	GI50 [3] [µM]	solubility [6]	log Ks [7]	Ratio [10]	Activity [11]	ΔTm [12] [°C]	Activity [13]	Activity [14]	Activity [15]	Activity [16]	Activity [17]	Ratio [18]	SMILES	GI50 at 72 h [4] [µM]	further results
13	4.2	3.5												N#Cc1c(-n2cc(CCO)nn2)c2ccccc2n2c1nc1ccccc12	3.3	
1	2	0.6	Soluble	5	0.5	Active	1.3	Active	Active	Active	Active	Active	0.08	N#Cc1c(-n2cc(CCO)nn2)c2ccc(F)cc2n2c1nc1ccccc12	0.73	ΔTm [5]: 0 °C; Activity [8]: Active; Drug uptake [9]: Not Active; Drug uptake [19]: Active; Activity [20]: Active
2	1.5	1	Soluble	6.1	0.3	Active	1.2	Active	Active	Active	Active	Active	0.4	N#Cc1c(-n2cc(CCCCl)nn2)c2ccccc2n2c1nc1ccccc12	1	Ratio [21]: 0.2; Drug uptake [22]: Not Active; Ratio [23]: 0.3; log Ks [24]: 6; Drug uptake [25]: Active; ΔTm [26]: 0.2 to 17 °C; ΔTm [27]: 0.4 to 25.3 °C; Activity [28]: Active
0.7	2	0.5	Soluble	5.2	0.5	inactive	0.5	Active	Active	Active	Active	Active	0.1	N#Cc1c(-n2cc(CCCCl)nn2)c2ccc(F)cc2n2c1nc1ccccc12	3.5	Ratio [21]: 0.4; Activity [8]: Active; Drug uptake [9]: Not Active; Ratio [23]: 0.1; log Ks [24]: 5.9; ΔTm [26]: 0.7 to 16.6 °C; ΔTm [27]: 0.7 to 20.7 °C; Activity [28]: Active; selectivity ratio at 72 h [29]: > 7; Drug uptake [19]: Active; Activity [20]: Active
52	3	10												N#Cc1c(-n2cc(C3CC3)nn2)c2ccccc2n2c1nc1ccccc12		
32	35	34												CCCCCc1ccc(-c2cn(-c3c(C#N)c4nc5ccccc5n4c4ccccc34)nn2)cc1		
17	15	16												CCCCCCCCCCc1cn(-c2ccc3c(-n4cc(CCCCCCCCCC)nn4)c(C#N)c4nc5ccccc5n4c3c2)nn1		
16	18	8												CCCCCc1ccc(-c2cn(-c3ccc4c(-n5cc(-c6ccc(CCCCC)cc6)nn5)c(C#N)c5nc6ccccc6n5c4c3)nn2)cc1		
13	4.2	3.5												N#Cc1c(-n2cc(CNS(=O)(=O)c3ccc(F)cc3)nn2)c2ccccc2n2c1nc1ccccc12	2.9	
7	5	3												CCCCCCCCCCc1cn(-c2c(C#N)c3nc4ccccc4n3c3cc(F)ccc23)nn1	3.5	
